Each structure is given as a SMILES string.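 Grown in 96-well plates, cells were treated for 48 hours with each compound at five concentrations. Insufficient inhibition: endpoint recorded as highest concentration tested. Here, GI50 denotes the concentration required for 50% inhibition of growth.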 The source made the active and inactive calls. Cut-off read from the data, not from the text of the source: active = GI50 up to about 1.1 µM and inactive = higher.

Data on twelve molecules can be found in ChEMBL document CHEMBL1201862, “PubChem BioAssay data set” (2004).

Holding throughout (assay): inhibition of tumour cell growth, NCI panel, 48 h
Assay [1] deals with CAKI-1.
Assay [2] concerns HCT-15.
Assay [3] concerns KM12.
The subject of assay [4] is LOX IMVI.
The subject of assay [5] is M14.
For assay [6], the system named is NCI-H460.
Assay [7] concerns OVCAR-8.
Assay [8] deals with RXF 393.
Assay [9] has as its system SF-539.
Assay [10] deals with SK-MEL-28.
Assay [11] relates to SK-MEL-2.
Assay [12] has as its system SN12C.
The test system of assay [13] is SNB-19.
Assay [14] deals with SNB-75.
The subject of assay [15] is SR.
Assay [16] deals with TK-10.
For assay [17], the system named is UO-31.

Take `N#Cc1ccc(Nc2cnc3ccc(N)cc3n2)cc1`: the GI50 in assay [1] is > 100 µM (inactive); in [2], more than 100 µM; in assay [3], > 100 µM (inactive); in assay [4] it was > 100 µM (inactive); in [5], > 100 µM (inactive); in [6], > 100 µM (inactive). In addition, the GI50 in assay [7], in assay [8], in assay [9], in [10], in assay [11] and in [12] was > 100 µM (inactive) throughout. Besides, the GI50 was > 100 µM (inactive) in [13]; > 100 µM (inactive) in assay [14]; 91.4 µM (inactive) in assay [15]; > 100 µM (inactive) in [16]; > 100 µM (inactive) in [17].
Take `Cc1c(C(=O)C/C(=N/NC(=O)C[n+]2ccccc2)C(=O)Nc2ccccc2)[n+]([O-])c2ccccc2[n+]1[O-]`: the GI50 is > 100 µM (inactive) in [1]; more than 100 µM in [2]; > 100 µM (inactive) in assay [3]; > 100 µM (inactive) in [4]; > 100 µM (inactive) in [5]; > 100 µM (inactive) in assay [6]. The GI50 in assay [7], in assay [8], in [9], in [10], in [11] and in [12] was > 100 µM (inactive) in each case. Moreover, the GI50 is > 100 µM (inactive) in assay [13]; > 100 µM (inactive) in [14]; 87.5 µM (inactive) in assay [15]; > 100 µM (inactive) in assay [16]; > 100 µM (inactive) in assay [17].
Regarding `CCCCCC(=O)N[C@H]1CCc2cc(O)c(O)c(O)c2-c2ccc(SC)c(=O)cc21`, the GI50 in assay [1] is 28.3 µM (inactive); in assay [2], 22.5 µM; in assay [3] it was 39.6 µM (inactive); in [4], 23.1 µM (inactive); in [5], 19 µM (inactive); in [6] it was 38.4 µM (inactive). The GI50 in assay [7] is 26.1 µM (inactive); in assay [8] it was 38.9 µM (inactive); in assay [9], 20.9 µM (inactive); in assay [10], 48.3 µM (inactive); in assay [11], 33 µM (inactive); in assay [12], 20.3 µM (inactive). Further, the GI50 is 43.3 µM (inactive) in assay [13]; 32.2 µM (inactive) in assay [14]; 22.8 µM (inactive) in assay [15]; > 100 µM (inactive) in assay [16]; > 77.6 µM (inactive) in assay [17].
For the molecule `CSCC(COC(C)=O)(CSC)c1ccncc1`, the GI50 in assay [1] is > 100 µM (inactive); in [2] it was more than 100 µM; in assay [3] it was > 100 µM (inactive); in assay [4] it was > 100 µM (inactive); in [5], > 100 µM (inactive); in assay [6], > 100 µM (inactive). Further, the GI50 in assay [7], in assay [8], in [9], in assay [10], in [11] and in [12] was > 100 µM (inactive) throughout. For the same molecule, the GI50 in [13] is > 100 µM (inactive); in assay [14] it was 85.7 µM (inactive); in [15], > 100 µM (inactive); in assay [16] it was > 100 µM (inactive); in assay [17] it was > 100 µM (inactive).
For `CCC(CO)COC(=O)/C=C/C(=O)OCC(CC)CO` (stereo unspecified), the GI50 was > 100 µM (inactive) in assay [1]; more than 73.3 µM in assay [2]; > 100 µM (inactive) in [3]; > 100 µM (inactive) in assay [4]; > 71.8 µM (inactive) in assay [5]; > 100 µM (inactive) in assay [6]. Also, the GI50 is > 76.2 µM (inactive) in assay [7]; > 65.3 µM (inactive) in [8]; > 100 µM (inactive) in assay [9]; > 100 µM (inactive) in assay [10]; > 100 µM (inactive) in [11]; > 100 µM (inactive) in assay [12]. Besides, the GI50 was > 100 µM (inactive) in [13]; 73.5 µM (inactive) in assay [14]; 30.9 µM (inactive) in assay [15]; > 100 µM (inactive) in assay [16]; > 100 µM (inactive) in [17].
`O=C(Nc1cccc(O)c1)C(=O)C(C(=O)c1ccc(Cl)c(Cl)c1)C1OC(=O)c2ccccc21` (stereo unspecified): the GI50 in assay [1] is 27.2 µM (inactive); in assay [2] it was 15.5 µM; in [3], 19.5 µM (inactive); in [4], 17.3 µM (inactive); in assay [5], 20.2 µM (inactive); in assay [6], 13.2 µM (inactive). Further, the GI50 in [7] is 10.7 µM (inactive); in assay [8], 20.9 µM (inactive); in [10], 21.6 µM (inactive); in [11] it was 17.5 µM (inactive); in assay [12], 18.6 µM (inactive); in [13], 13.3 µM (inactive). The GI50 is 17.8 µM (inactive) in assay [14], 4.44 µM (inactive) in [15], 23.8 µM (inactive) in assay [16] and 13.7 µM (inactive) in [17].
Turning to `C=CCCCC(C#N)(c1ccccc1)N1CCCC1` (stereo unspecified), the GI50 in assay [1] was > 100 µM (inactive); in assay [2] it was more than 100 µM; in assay [3] it was > 100 µM (inactive); in assay [4], > 100 µM (inactive); in [5], > 100 µM (inactive); in [6], > 100 µM (inactive). The GI50 in [7], in assay [8], in assay [9], in [10], in [11] and in assay [12] was > 100 µM (inactive) each time. For the same molecule, the GI50 in [13], in [14], in assay [15], in assay [16] and in [17] was > 100 µM (inactive) each time.
Take `Cn1c(=O)c2c3ccccc3c(C(=O)c3ccccc3)n2c2ccccc21`: the GI50 in [1] was > 26.8 µM (inactive); in [2], 3.4 µM; in assay [3] it was 2.44 µM (inactive); in assay [4] it was 9.64 µM (inactive); in assay [5], 8.55 µM (inactive); in assay [6], 3.48 µM (inactive). Besides, the GI50 in assay [7] is 16.4 µM (inactive); in assay [8], 14.7 µM (inactive); in [9], 16.3 µM (inactive); in assay [10], 17.8 µM (inactive); in assay [11], 15.5 µM (inactive); in assay [12], 9.33 µM (inactive). Also, the GI50 in assay [13] was > 43.3 µM (inactive); in assay [14], 3.18 µM (inactive); in assay [15], 2.45 µM (inactive); in assay [16], > 43.7 µM (inactive); in assay [17], > 52.7 µM (inactive).
Take `Cc1ccc(S(=O)(=O)OC(C=O)C(O)C(O)COC(c2ccccc2)(c2ccccc2)c2ccccc2)cc1` (stereo unspecified): the GI50 in assay [1] was 19.8 µM (inactive); in assay [2], 14.1 µM; in assay [3] it was 11.9 µM (inactive); in assay [4], 19.1 µM (inactive); in assay [5] it was 16.1 µM (inactive); in assay [6] it was 14 µM (inactive). In addition, the GI50 in assay [7] is 13.6 µM (inactive); in [8], 15.2 µM (inactive); in [9] it was 16.3 µM (inactive); in assay [10], 20.6 µM (inactive); in assay [11] it was 16.2 µM (inactive); in assay [12] it was 15.5 µM (inactive). The GI50 in assay [13] was 14.8 µM (inactive); in assay [14], 14.9 µM (inactive); in assay [15], 5.43 µM (inactive); in [17], 16.8 µM (inactive).
For `COc1c(OC2OC(CO)C(O)C(O)C2O)cc2c(c1OC)-c1ccc(OC)c(=O)cc1C(NC(C)=O)CC2` (stereo unspecified), the GI50 was > 100 µM (inactive) in [1]; more than 100 µM in assay [2]; > 100 µM (inactive) in [3]; > 100 µM (inactive) in assay [4]; > 100 µM (inactive) in assay [5]; > 100 µM (inactive) in assay [6]. Also, the GI50 in [7] was > 100 µM (inactive); in [8], > 83.6 µM (inactive); in assay [9], > 100 µM (inactive); in [10] it was 61 µM (inactive); in assay [11], 57.8 µM (inactive); in [12], > 100 µM (inactive). For the same molecule, the GI50 in assay [13] is > 100 µM (inactive); in assay [14], 25.3 µM (inactive); in assay [15] it was > 100 µM (inactive); in assay [16] it was > 100 µM (inactive); in [17], > 100 µM (inactive).
For the molecule `COc1c(OC)c(N)c2cc(C)c(=O)c(C)cc2c1N`, the GI50 in assay [1] was > 100 µM (inactive); in [2], 99.8 µM; in [3], > 100 µM (inactive); in assay [4], 55.2 µM (inactive); in assay [5], > 100 µM (inactive); in assay [6], > 100 µM (inactive). Moreover, the GI50 in [7], in [8], in assay [9], in assay [11], in assay [12] and in assay [13] was > 100 µM (inactive) throughout. In addition, the GI50 in assay [14] is 56.4 µM (inactive); in [15], 12.4 µM (inactive); in [16] it was > 100 µM (inactive); in assay [17], > 100 µM (inactive).
`COc1nc(OC)nc(Sc2ccc(Sc3ccc(Sc4nc(OC)nc(OC)n4)cc3)cc2)n1`: the GI50 in assay [1] is > 100 µM (inactive); in assay [2], more than 100 µM; in assay [3], > 100 µM (inactive); in [4] it was > 100 µM (inactive); in assay [5], > 100 µM (inactive); in assay [6] it was > 100 µM (inactive). The GI50 in assay [7], in assay [8], in assay [9], in assay [10], in assay [11] and in [12] was > 100 µM (inactive) each time. The GI50 is > 100 µM (inactive) in assay [13]; > 100 µM (inactive) in [14]; 7.52 µM (inactive) in assay [15]; > 100 µM (inactive) in assay [16]; > 100 µM (inactive) in assay [17].
